Results taken from ChEMBL document CHEMBL1201862, “PubChem BioAssay data set” (2004).
Calls of active or inactive are those of the source.

Experiments:
NADPH oxidase 1 = target: T1, NADPH oxidase 1 (Homo sapiens, UniProt Q9Y5S8); format: functional, cell-based;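 further: Cell-based assay with luminescence read-out, IC50 derived from inhibitor dose-response curves; intracellular ROS from endogenous NOX1 in intact HT29 colon cancer cells; potency of inhibitors that lower the ROS luminescence signal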
T1 sequence (Q9Y5S8 whole entry): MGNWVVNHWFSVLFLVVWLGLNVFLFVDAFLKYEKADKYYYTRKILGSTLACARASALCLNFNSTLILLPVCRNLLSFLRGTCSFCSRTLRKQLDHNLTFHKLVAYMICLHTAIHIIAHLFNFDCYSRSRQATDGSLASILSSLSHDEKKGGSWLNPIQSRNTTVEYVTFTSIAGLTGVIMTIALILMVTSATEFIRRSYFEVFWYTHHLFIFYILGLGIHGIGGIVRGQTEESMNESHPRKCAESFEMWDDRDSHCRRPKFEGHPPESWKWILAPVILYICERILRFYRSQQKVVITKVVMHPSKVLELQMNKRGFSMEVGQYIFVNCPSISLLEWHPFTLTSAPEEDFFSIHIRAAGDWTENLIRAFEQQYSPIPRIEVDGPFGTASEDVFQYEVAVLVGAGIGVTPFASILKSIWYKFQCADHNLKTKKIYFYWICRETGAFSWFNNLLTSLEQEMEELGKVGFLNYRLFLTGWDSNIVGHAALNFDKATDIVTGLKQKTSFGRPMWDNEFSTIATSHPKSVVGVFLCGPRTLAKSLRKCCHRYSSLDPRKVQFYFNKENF

[1] = luciferase reporter signal suppression in cells – H4 neuroglioma cells, luminescence, dose response (AID 1990); format: functional, cell-based
[2] = luciferase reporter signal reduction – luminescence, H4-C neuroglioblastoma cells, dose response (AID 2458); format: functional, cell-based;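 further: H4 neuroglioblastoma cells stably carrying a luciferase reporter gene fusion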
cells [3] = format: functional, cell-based
[4] = Luminescence Cell-Based Dose Response HTS to Identify Inhibitors of 5'UTR Stem-Loop Driven Prion Protein mRNA Translation in H4 Neuroglioblastoma Cells. [Related pubchem assays: 1827 (Project Summary), 1813 (Primary HTS)]; format: functional
Galanin receptor type 2 = Galanin receptor type 2 (Homo sapiens, UniProt O43603); assay: Dose Response cell-based high-throughput screening assay to identify antagonists of galanin receptor 2 (GALR2). [Related pubchem assays: 828, 866 ]; format: functional
[5] = alpha-synuclein stem-loop luciferase translation blockers – H4 neuroglioma cells, luminescence, confirmation (AID 1988); format: functional, cell-based
BJ [6] = assay: cells; format: functional, cell-based, Homo sapiens; conditions: Homo sapiens, BJ
[7] = Luminescence-based dose response cell-based high throughput screening assay for cytotoxic compounds using the IEC-6 intestinal epithelial cell line. [Related pubchem assays: 1858 (Summary AID.), 1825 (Counterscreen.), 1907 (Confirmation screen.)]; format: functional
BJ [8] = assay: BJ-TERT-LT-ST fibroblast viability loss – cell-based, RAS-independent, luminescence, dose response (AID 1935); format: functional, Homo sapiens; conditions: Homo sapiens, BJ;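 further: BJ fibroblasts immortalized with TERT plus LT and ST oncogenes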
[9] = alpha-synuclein stem-loop translation blockers – luminescence, H4 neuroglioblastoma cells, dose confirmation, confirmation (AID 2454); format: functional, cell-based;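 further: H4 neuroglioblastoma cells carrying an alpha-synuclein 5'UTR luciferase reporter; potency for inhibition of the luciferase signal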
[10] = HEK-293T cell viability reduction – luminescence, B-cell screen hits, cytotoxicity control for BCR NF-kB inhibitor project, dose response (AID 489021); format: functional, cell-based;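 further: HEK-293T cells carrying an NF-kB luciferase reporter; cells exposed to compound for about 14 hours before viability readout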
[11] = target: T2, High affinity choline transporter 1 (Homo sapiens, UniProt Q9GZV3); assay: human choline transporter blockers, potency – cell-based, 5-point CRC, membrane potential dye, dose response (AID 504840); format: functional
T2 sequence (Q9GZV3 whole entry): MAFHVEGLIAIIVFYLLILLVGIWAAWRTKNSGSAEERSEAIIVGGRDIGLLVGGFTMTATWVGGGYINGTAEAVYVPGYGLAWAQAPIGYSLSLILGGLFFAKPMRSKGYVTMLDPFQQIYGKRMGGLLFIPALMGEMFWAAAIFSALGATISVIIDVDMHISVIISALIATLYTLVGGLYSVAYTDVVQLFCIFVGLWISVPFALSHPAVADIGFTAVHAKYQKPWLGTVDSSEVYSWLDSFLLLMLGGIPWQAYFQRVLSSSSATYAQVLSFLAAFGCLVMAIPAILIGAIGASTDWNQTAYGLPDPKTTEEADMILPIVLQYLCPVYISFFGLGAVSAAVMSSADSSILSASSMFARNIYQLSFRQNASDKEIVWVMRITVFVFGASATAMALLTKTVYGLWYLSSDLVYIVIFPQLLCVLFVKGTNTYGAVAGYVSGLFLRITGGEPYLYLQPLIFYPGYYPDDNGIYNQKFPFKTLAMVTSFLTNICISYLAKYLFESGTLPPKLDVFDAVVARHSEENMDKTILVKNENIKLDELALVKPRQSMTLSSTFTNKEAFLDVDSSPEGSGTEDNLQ

INS1 = assay: INS-1E survival protection against cytokine death – cell-based, luminescence, retest, dose response (AID 449756); format: functional; conditions: Rattus norvegicus;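 further: cell death triggered by IL-1 beta plus TNF-alpha plus IFN-gamma mixture; protective hits raise ATP signal compared with cytokine alone wells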
[12] = target: T2, High affinity choline transporter 1; assay: human choline transporter blockers, potency – cell-based, 10-point CRC, membrane potential dye, dose response (AID 588401); format: functional;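 further: membrane potential dye fluorescence of choline-evoked depolarization via CHT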
[13] = target: Photoreceptor-specific nuclear receptor (Homo sapiens, UniProt Q9Y5X4); format: functional, cell-based;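 further: CHO-S cells with Gal4-NCOR and VP16-NR2E3 two-hybrid luciferase reporter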
Paired box protein Pax-8 = Paired box protein Pax-8 (Homo sapiens, UniProt Q06710); assay: PAX8 transcriptional activity inhibition in RMG-I – RMG-I cells, luciferase, cherry-pick, dose response (AID 687027); format: functional, cell-based;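 further: luciferase reporter driven by Pax8 target thyroperoxidase promoter measured by SteadyGlo luminescence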
Major prion protein = Major prion protein (Homo sapiens, UniProt P04156); format: functional, cell-based
cells [14] = assay: cells

SMILES | IC50 (NADPH oxidase 1) | EC50 [1] | EC50 [2] | EC50 (cells [3]) | EC50 [4] | IC50 (Galanin receptor type 2) | EC50 [5] | EC50 (BJ [6]) | IC50 [7] | EC50 (BJ [8]) | EC50 [9] | IC50 [10] | IC50 [11] | AC50 (INS1) | IC50 [12] | IC50 [13] | AC50 (Paired box protein Pax-8) | IC50 (Major prion protein) | IC50 (cells [14])
COc1ccccc1OC(=O)c1cc2ccccc2s1 | > 17000 nM (not active) | – | – | – | – | – | – | – | – | – | – | – | – | – | – | – | – | – | –
CC1CCC/C=C/C2CC(O)CC2C(O)/C=C/C(=O)O1 (centres undefined) | – | < 100 nM (active) | 78 nM (active) | 78 nM (active) | < 100 nM (active) | > 42000 nM (not active) | < 100 nM (active) | > 150000 nM (inconclusive) | 353 nM (active) | < 120 nM (active) | 71 nM (active) | > 80000 nM (inactive) | 1870 nM (active) | 740 nM (active) | 3030 nM (active) | 714 nM (active) | < 260 nM (active) | 3430 nM (active) | > 138000 nM (inactive)
